Several values for one entry are separate records, joined by “and”; a condition that tells them apart may be missing. Equal entries are not always repeated. Inconclusive results and toxic doses are left out.
System: L1210 leukemia ip in BDF1 mice, survival T/C
Assay: NCI In Vivo Anticancer Drug Screen. Data for tumor model L1210 Leukemia (intraperitoneal) in B6D2F1 (BDF1) mice
Details: endpoint: mean survival time, higher = longer survival
Outline: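 Tumor cells were implanted, animals were treated, and survival was followed. The result divides the treated measurement by the vehicle-control measurement.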

[1] = dose: 100.0 mg/kg/injection, schedule: Q01DX001 (ip), vehicle: Klucel (hydroxypropylcellulose) (HPC)
[2] = dose: 100.0 mg/kg/injection, schedule: Q01DX009 (ip), vehicle: Klucel (hydroxypropylcellulose) (HPC)
[3] = dose: 100.0 mg/kg/injection, schedule: Q04DX003 (ip), vehicle: Klucel (hydroxypropylcellulose) (HPC)
[4] = dose: 200.0 mg/kg/injection, schedule: Q01DX001 (ip), vehicle: Klucel (hydroxypropylcellulose) (HPC)
[5] = dose: 200.0 mg/kg/injection, schedule: Q01DX009 (ip), vehicle: Klucel (hydroxypropylcellulose) (HPC)
[6] = dose: 200.0 mg/kg/injection, schedule: Q04DX003 (ip), vehicle: Klucel (hydroxypropylcellulose) (HPC)
[7] = dose: 400.0 mg/kg/injection, schedule: Q01DX001 (ip), vehicle: Klucel (hydroxypropylcellulose) (HPC)
[8] = dose: 400.0 mg/kg/injection, schedule: Q01DX009 (ip), vehicle: Klucel (hydroxypropylcellulose) (HPC)
[9] = dose: 400.0 mg/kg/injection, schedule: Q04DX003 (ip), vehicle: Klucel (hydroxypropylcellulose) (HPC)
[10] = dose: 75.0 mg/kg/injection, schedule: Q01DX009 (ip), vehicle: Klucel (hydroxypropylcellulose) (HPC)
[11] = dose: 150.0 mg/kg/injection, schedule: Q01DX009 (ip), vehicle: Klucel (hydroxypropylcellulose) (HPC)
[12] = dose: 300.0 mg/kg/injection, schedule: Q01DX009 (ip), vehicle: Klucel (hydroxypropylcellulose) (HPC)
[13] = dose: 100.0 mg/kg/injection, schedule: Q01DX001 (ip), vehicle: saline
[14] = dose: 200.0 mg/kg/injection, schedule: Q01DX001 (ip), vehicle: saline
[15] = dose: 400.0 mg/kg/injection, schedule: Q01DX001 (ip), vehicle: saline
[16] = dose: 100.0 mg/kg/injection, schedule: Q04DX003 (ip), vehicle: saline with Tween-80
[17] = dose: 100.0 mg/kg/injection, schedule: Q04DX003 (ip), vehicle: saline
[18] = dose: 200.0 mg/kg/injection, schedule: Q04DX003 (ip), vehicle: saline with Tween-80
[19] = dose: 200.0 mg/kg/injection, schedule: Q04DX003 (ip), vehicle: saline
[20] = dose: 400.0 mg/kg/injection, schedule: Q04DX003 (ip), vehicle: saline
[21] = dose: 100.0 mg/kg/injection, schedule: Q04DX002 (ip), vehicle: Klucel (hydroxypropylcellulose) (HPC)
[22] = dose: 200.0 mg/kg/injection, schedule: Q04DX002 (ip), vehicle: Klucel (hydroxypropylcellulose) (HPC)

Structure (SMILES): Cc1ccc(C(=O)CCCC(=O)O)c(O)c1
- T/C [1]: 96 % of control
- T/C [2]: 97 % of control
- T/C [3]: 102 % of control
- T/C [4]: 104 % of control
- T/C [5]: 93 % of control
- T/C [6]: 112 % of control
- T/C [7]: 95 % of control
- T/C [8]: 92 % of control
- T/C [9]: 100 % of control

Structure (SMILES): COc1cc(C(=O)N/N=C/N(C)C)cc(OC)c1OC
- T/C [10]: 109 % of control
- T/C [3]: 99 % of control
- T/C [11]: 102 % of control
- T/C [6]: 99 % of control
- T/C [12]: 89 % of control
- T/C [9]: 100 % of control

Structure (SMILES): CC(C)c1cc[n+](/C(C(=S)Nc2ccccc2Cl)=C(/[O-])c2ccc([N+](=O)[O-])cc2)cc1
- T/C [2]: 94 % of control
- T/C [5]: 97 % of control
- T/C [8]: 96 % of control

Structure (SMILES): O=C(Sc1n[nH]c(=O)[nH]c1=O)c1ccccc1
- T/C [13]: 109 % of control
- T/C [14]: 107 % of control
- T/C [15]: 105 % of control

Structure (SMILES): CC1(C)C2CCC(CCOC(=O)COc3ccc(Cl)cc3)C1C2 (configuration not stated)
- T/C [3]: 98 % of control
- T/C [6]: 100 % of control
- T/C [9]: 100 % of control

Structure (SMILES): CC(CO)CCC(O)C(C)C1CCC2C3CCC4CC(O)CCC4(C)C3CCC12C (configuration not stated)
- T/C (dose: 6.25 mg/kg/injection, schedule: Q01DX001 (ip), vehicle: saline with Tween-80): 91 % of control
- T/C (dose: 12.5 mg/kg/injection, schedule: Q01DX001 (ip), vehicle: saline with Tween-80): 91 % of control
- T/C (dose: 25.0 mg/kg/injection, schedule: Q01DX001 (ip), vehicle: saline with Tween-80): 90 % of control
- T/C (dose: 100.0 mg/kg/injection, schedule: Q01DX001 (ip), vehicle: saline with Tween-80): 92 % of control
- T/C (dose: 400.0 mg/kg/injection, schedule: Q01DX001 (ip), vehicle: saline with Tween-80): 92 % of control

Structure (SMILES): CCN(CCO)c1ccc(N=Nc2ccc([N+](=O)[O-])cc2)cc1
- T/C [1]: 105 % of control
- T/C [4]: 96 % of control
- T/C [7]: 100 % of control

Structure (SMILES): COc1cc2c3c(c1)/C(=N\NC(N)=O)CCN3CCC2
- T/C [3]: 98 % of control
- T/C [6]: 103 % of control
- T/C [9]: 108 % of control

Structure (SMILES): COc1ccc(C(=S)N(C)c2ccccc2)cc1
- T/C (dose: 100.0 mg/kg/injection, schedule: Q04DX003 (ip), vehicle: gum acacia): 96 % of control
- T/C (dose: 200.0 mg/kg/injection, schedule: Q04DX003 (ip), vehicle: gum acacia): 93 % of control
- T/C (dose: 400.0 mg/kg/injection, schedule: Q04DX003 (ip), vehicle: gum acacia): 95 % of control

Structure (SMILES): CC(=O)OC(=O)C1C2CC3C(C2)C31 (configuration not stated)
- T/C (dose: 6.25 mg/kg/injection, schedule: Q01DX009 (ip), vehicle: other): 101 % of control
- T/C (dose: 12.5 mg/kg/injection, schedule: Q01DX009 (ip), vehicle: other): 97 % of control
- T/C (dose: 25.0 mg/kg/injection, schedule: Q01DX009 (ip), vehicle: other): 93 % of control

Structure (SMILES): CCCCCC(C[N+](C)(C)C)C(=O)/C=C/c1ccc(Cl)cc1 (configuration not stated)
- T/C [3]: 96 % of control
- T/C [6]: 106 % of control

Structure (SMILES): Cc1cc(C)c(N(CC(=O)O)S(=O)(=O)c2ccccc2)c(Sc2ccccc2)c1
- T/C [1]: 113 % of control
- T/C [4]: 98 % of control
- T/C [7]: 100 % of control

Structure (SMILES): CCOC(=O)Nc1ccc(OCC)cc1
- T/C (dose: 50.0 mg/kg/injection, schedule: Q01DX001 (ip), vehicle: Klucel (hydroxypropylcellulose) (HPC)): 98 % of control
- T/C [1]: 101 % of control
- T/C [4]: 102 % of control and 106 % of control
- T/C [7]: 97 % of control and 98 % of control

Structure (SMILES): O=C(O)c1cccc(-c2ccccc2)c1
- T/C (dose: 25.0 mg/kg/injection, schedule: Q04DX003 (ip), vehicle: saline with Tween-80): 94 % of control
- T/C (dose: 50.0 mg/kg/injection, schedule: Q04DX003 (ip), vehicle: saline with Tween-80): 93 % of control
- T/C [16]: 104 % of control
- T/C [17]: 101 % of control
- T/C [18]: 94 % of control and 100 % of control
- T/C [19]: 106 % of control
- T/C [20]: 108 % of control

Structure (SMILES): C[N+]1(C)CCS(=O)(=O)CC1
- T/C [21]: 104 % of control
- T/C [22]: 110 % of control

Structure (SMILES): CCCCCC/C(=N/NC(N)=O)C(OC)OC
- T/C (dose: 100.0 mg/kg/injection, schedule: Q01DX001 (ip), vehicle: other): 94 % of control
- T/C (dose: 200.0 mg/kg/injection, schedule: Q01DX001 (ip), vehicle: other): 105 % of control
- T/C (dose: 400.0 mg/kg/injection, schedule: Q01DX001 (ip), vehicle: other): 100 % of control

Structure (SMILES): Cc1ccc(C(CCC#N)OC(C)C)cc1 (configuration not stated)
- T/C [2]: 95 % of control
- T/C [3]: 96 % of control
- T/C [5]: 92 % of control
- T/C [6]: 101 % of control
- T/C [8]: 97 % of control
- T/C [9]: 92 % of control

Structure (SMILES): CNC(=O)c1cc(NC(=O)Nc2ccc(C3=NCCN3)cc2)cc(NC(=O)Nc2ccc(C3=NCCN3)cc2)c1
- T/C (dose: 15.0 mg/kg/injection, schedule: Q01DX Z (ip), vehicle: saline): 122 % of control
- T/C (dose: 60.0 mg/kg/injection, schedule: Q01DX Z (ip), vehicle: saline): 216 % of control
- T/C (dose: 60.0 mg/kg/injection, schedule: Q01DX Z (oral), vehicle: saline): 103 % of control
- T/C (dose: 120.0 mg/kg/injection, schedule: Q01DX Z (ip), vehicle: saline): 114 % of control
- T/C (dose: 120.0 mg/kg/injection, schedule: Q01DX Z (oral), vehicle: saline): 98 % of control
- T/C (dose: 240.0 mg/kg/injection, schedule: Q01DX Z (oral), vehicle: saline): 106 % of control
- T/C (dose: 480.0 mg/kg/injection, schedule: Q01DX Z (oral), vehicle: saline): 93 % of control

Structure (SMILES): CC1CNC(=O)N1 (configuration not stated)
- T/C [17]: 102 % of control
- T/C [19]: 101 % of control
- T/C (dose: 222.0 mg/kg/injection, schedule: Q01DX Z (ip), vehicle: saline): 97 % of control
- T/C (dose: 333.0 mg/kg/injection, schedule: Q01DX Z (ip), vehicle: saline): 111 % of control
- T/C [20]: 96 % of control
- T/C (dose: 500.0 mg/kg/injection, schedule: Q01DX Z (ip), vehicle: saline): 103 % of control

Structure (SMILES): Cc1ccc(C(=O)N/N=C/c2ccccc2Cl)cc1
- T/C [21]: 101 % of control
- T/C [22]: 93 % of control
- T/C (dose: 400.0 mg/kg/injection, schedule: Q04DX002 (ip), vehicle: Klucel (hydroxypropylcellulose) (HPC)): 104 % of control

Structure (SMILES): O=Cc1ccc(OC(=O)Nc2ccccc2F)cc1
- T/C [13]: 96 % of control
- T/C (dose: 100.0 mg/kg/injection, schedule: Q01DX009 (ip), vehicle: saline): 98 % of control and 101 % of control
- T/C (dose: 100.0 mg/kg/injection, schedule: Q04DX002 (ip), vehicle: saline): 103 % of control and 107 % of control
- T/C [14]: 99 % of control
- T/C (dose: 200.0 mg/kg/injection, schedule: Q01DX009 (ip), vehicle: saline): 106 % of control and 112 % of control
- T/C (dose: 200.0 mg/kg/injection, schedule: Q04DX002 (ip), vehicle: saline): 100 % of control and 104 % of control
- T/C [15]: 92 % of control
- T/C (dose: 400.0 mg/kg/injection, schedule: Q01DX009 (ip), vehicle: saline): 96 % of control
- T/C (dose: 400.0 mg/kg/injection, schedule: Q04DX002 (ip), vehicle: saline): 93 % of control and 109 % of control

Structure (SMILES): CC(=O)OCC1(C[N+](C)(C)C)CC1
- T/C [13]: 103 % of control
- T/C [17]: 100 % of control
- T/C [14]: 97 % of control
- T/C [19]: 100 % of control
- T/C [15]: 105 % of control
- T/C [20]: 100 % of control

Structure (SMILES): COc1ccc([N+](=O)[O-])cc1NC(=O)NCCCl
- T/C [10]: 108 % of control
- T/C [3]: 93 % of control
- T/C [11]: 95 % of control
- T/C [6]: 96 % of control
- T/C [12]: 102 % of control
- T/C [9]: 98 % of control

Structure (SMILES): NC(=O)/C(=C\c1ccncc1)c1cccc2ccccc12
- T/C [2]: 97 % of control
- T/C [16]: 108 % of control
- T/C [5]: 97 % of control
- T/C [18]: 88 % of control

Structure (SMILES): Cc1cc(C)c(C(=O)Oc2ccc3ccccc3c2)c(C)c1
- T/C [16]: 92 % of control
- T/C [18]: 92 % of control
- T/C (dose: 400.0 mg/kg/injection, schedule: Q04DX003 (ip), vehicle: saline with Tween-80): 86 % of control
